Measured values published in patent US20260022142A1, “MACROCYCLIC IMMUNOMODULATORS” (Bristol-Myers Squibb Company, priority 2022, published 2026).
Numbered stars: 1 amine (or outer) side, 2 acyl side, 3 side chain; on linkers, the order of the positions; unused ones are H or OH. Bridge positions count the residues as written; N and C are the ends. Square brackets hold non-standard residues; d marks the D form. Peptide text beside a SMILES is read from it. * marks the point of attachment. ξ: configuration not given here. Phe(4-COOH) = N[C@@H](Cc1ccc(C(=O)O)cc1)C(=O)O; Bip = N[C@@H](Cc1ccc(-c2ccccc2)cc1)C(=O)O; X18 = O=C(C(CC1CCC(F)(F)CC1)N[*:1])[*:2]; Phe(3-Me) = Cc1cccc(C[C@H](N)C(=O)O)c1; NH(CH2)12COOH = O=C(O)CCCCCCCCCCCCN*; X4 = O=C([C@@H](N[*:1])C1CNC1)[*:2]; Val(3-OH) = CC(C)(O)[C@H](N)C(=O)O; X15 = C[C@H](N)C(N[*:1])C(=O)[*:2]; 4Pal = N[C@@H](Cc1ccncc1)C(=O)O; ξVal(3-OH) = CC(C)(O)C(N)C(=O)O; Cha = N[C@@H](CC1CCCCC1)C(=O)O; Carboxymethyl = O=C(O)C*; Orn = NCCC[C@H](N)C(=O)O; Aun = NCCCCCCCCCCC(=O)O; Dab = NCC[C@H](N)C(=O)O; Nva = CCC[C@H](N)C(=O)O; AEEA = NCCOCCOCC(=O)O

Target: T1, PD-1/PD-L1 interaction (PE-labeled human PD-L1-Ig binding to Jurkat cell line over-expressing human PD-1) (Homo sapiens, UniProt Q15116)
T1 construct: expressed in transfected cells; host or cells: Jurkat
Test: Jurkat-PD-1 Cell Binding High-Content Screening Assay (CBA)
Format: cell-based
Conditions: Jurkat cell line over-expressing human PD-1; PE-labeled PD-L1-Ig 20 nM final; read-out: Jurkat hPD1-PDL1 IC50
Summary of the method: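 Human PD-L1-Ig carrying a covalent PE label on its Ig tag serves as the probe, applied at 20 nM final to compound-treated (2 h, 37° C) Jurkat-hPD-1 cells in medium with 10% fetal calf serum. After one hour, fixation and nuclear staining precede high-content image analysis.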

T1 sequence (Q15116 25-288): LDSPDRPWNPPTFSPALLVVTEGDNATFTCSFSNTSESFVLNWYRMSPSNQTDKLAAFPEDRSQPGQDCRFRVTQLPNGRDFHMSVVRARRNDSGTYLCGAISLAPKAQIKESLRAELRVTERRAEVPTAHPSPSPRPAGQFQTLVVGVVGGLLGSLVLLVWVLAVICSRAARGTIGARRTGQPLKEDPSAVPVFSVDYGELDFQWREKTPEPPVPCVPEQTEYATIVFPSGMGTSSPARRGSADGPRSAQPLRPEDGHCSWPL

Row | IC50 [µM] | Compound
1 | 0.0006 | CCC[C@@H]1NC(=O)CSC[C@@H](C(=O)N[C@@H](CCN)C(=O)NCCOCCOCC(=O)NCCCCCCCCCCC(=O)O)NC(=O)[C@H](CO)NC(=O)[C@H](C(C)(C)O)NC(=O)[C@H](CC2CCCCC2)NC(=O)[C@H](CCN)NC(=O)[C@@H](CC(C)C)NC(=O)[C@H](CCCN)NC(=O)[C@H](Cc2ccc(OCC(=O)O)cc2)NC(=O)[C@H](Cc2ccc(-c3ccccc3)cc2)NC(=O)[C@H](Cc2ccc(OCC(=O)O)cc2)NC(=O)[C@H](Cc2cccc(C)c2)NC(=O)[C@H](CC(=O)O)NC(=O)[C@H](Cc2ccc(OCC(=O)O)cc2)NC1=O [Compound 2246] ({CH2CO}-[Nva]Y(Carboxymethyl)D[Phe(3-Me)]Y(Carboxymethyl)[Bip]Y(Carboxymethyl)[Orn][dL][Dab][Cha][Val(3-OH)]SC[Dab][AEEA][Aun]-OH; thioether N-14)
2 | 0.0013 | CCC[C@@H]1NC(=O)CSC[C@@H](C(=O)N[C@@H](CCN)C(=O)NCCOCCOCC(=O)NCCCCCCCCCCC(=O)O)NC(=O)[C@H](CO)NC(=O)[C@H](C(C)(C)O)NC(=O)[C@H](CC2CCCCC2)NC(=O)[C@H](CCN)NC(=O)[C@@H](CC(C)C)NC(=O)[C@H](CCCN)NC(=O)[C@H](Cc2ccc(OCC(=O)O)cc2)NC(=O)[C@H](Cc2ccc(-c3ccccc3)cc2)NC(=O)[C@H](Cc2ccc(OCC(=O)O)cc2)NC(=O)[C@H](Cc2cccc(C)c2)NC(=O)[C@H](CC(=O)O)NC(=O)[C@H](Cc2ccc(C(=O)O)cc2)NC1=O [Compound 2247] ({CH2CO}-[Nva][Phe(4-COOH)]D[Phe(3-Me)]Y(Carboxymethyl)[Bip]Y(Carboxymethyl)[Orn][dL][Dab][Cha][Val(3-OH)]SC[Dab][AEEA][Aun]-OH; thioether N-14)
3 | 0.0051 | Cc1cccc(C[C@@H]2NC(=O)[C@H](CC(=O)O)NC(=O)[C@H](Cc3ccc(O)cc3)NC(=O)[C@H](CCCNC(=N)N)NC(=O)CSC[C@@H](C(=O)N[C@@H](CCN)C(=O)NCCOCCOCC(=O)NCCCCCCCCCCC(=O)O)NC(=O)[C@H](CO)NC(=O)[C@H](C(C)(C)O)NC(=O)[C@H](CC3CCCCC3)NC(=O)[C@H](CCN)NC(=O)[C@@H](CC(C)C)NC(=O)[C@H](CCCN)NC(=O)[C@H](Cc3ccc(OCC(=O)O)cc3)NC(=O)[C@H](Cc3ccc(-c4ccccc4)cc3)NC(=O)[C@H](Cc3ccc(OCC(=O)O)cc3)NC2=O)c1 [Compound 2248] ({CH2CO}-RYD[Phe(3-Me)]Y(Carboxymethyl)[Bip]Y(Carboxymethyl)[Orn][dL][Dab][Cha][Val(3-OH)]SC[Dab][AEEA][Aun]-OH; thioether N-14)
4 | 0.016 | Cc1cccc(C[C@@H]2NC(=O)[C@H](CC(=O)O)NC(=O)[C@H](Cc3ccc(OCC(=O)O)cc3)NC(=O)[C@H]([C@@H](C)O)NC(=O)CSC[C@@H](C(=O)N[C@@H](CCN)C(=O)NCCOCCOCC(=O)NCCCCCCCCCCCCC(=O)O)NC(=O)[C@H](CO)NC(=O)[C@H](C(C)(C)O)NC(=O)[C@H](CC3CCCCC3)NC(=O)[C@H](CCN)NC(=O)[C@@H](CC(C)C)NC(=O)[C@H](CCCN)NC(=O)[C@H](Cc3ccc(OCC(=O)O)cc3)NC(=O)[C@H](Cc3ccc(-c4ccccc4)cc3)NC(=O)[C@H](Cc3ccc(OCC(=O)O)cc3)NC2=O)c1 [Compound 2249] ({CH2CO}-TY(Carboxymethyl)D[Phe(3-Me)]Y(Carboxymethyl)[Bip]Y(Carboxymethyl)[Orn][dL][Dab][Cha][Val(3-OH)]SC[Dab][AEEA]-{NH(CH2)12COOH}; thioether N-14)
5 | 0.018 | Cc1cccc(C[C@@H]2NC(=O)[C@H](CC(=O)O)NC(=O)[C@H](Cc3ccc(O)cc3)NC(=O)[C@H]([C@@H](C)O)NC(=O)CSC[C@@H](C(=O)N[C@@H](CCN)C(=O)NCCOCCOCC(=O)NCCCCCCCCCCCCC(=O)O)NC(=O)[C@H](CO)NC(=O)[C@H](C(C)(C)O)NC(=O)[C@H](CC3CCCCC3)NC(=O)[C@H](CCN)NC(=O)[C@@H](CC(C)C)NC(=O)[C@H](CCCN)NC(=O)[C@H](Cc3ccc(OCC(=O)O)cc3)NC(=O)[C@H](Cc3ccc(-c4ccccc4)cc3)NC(=O)[C@H](Cc3ccc(OCC(=O)O)cc3)NC2=O)c1 [Compound 2250] ({CH2CO}-TYD[Phe(3-Me)]Y(Carboxymethyl)[Bip]Y(Carboxymethyl)[Orn][dL][Dab][Cha][Val(3-OH)]SC[Dab][AEEA]-{NH(CH2)12COOH}; thioether N-14)
6 | 0.0105 | Cc1cccc(C[C@@H]2NC(=O)[C@H](CC(=O)O)NC(=O)[C@H](Cc3ccc(OCC(=O)O)cc3)NC(=O)[C@H](Cc3ccncc3)NC(=O)CSC[C@@H](C(=O)N[C@@H](CCN)C(=O)NCCOCCOCC(=O)NCCCCCCCCCCCCC(=O)O)NC(=O)[C@H](CO)NC(=O)[C@H](C(C)(C)O)NC(=O)[C@H](CC3CCCCC3)NC(=O)[C@H](CCN)NC(=O)[C@@H](CC(C)C)NC(=O)[C@H](CCCN)NC(=O)[C@H](Cc3ccc(OCC(=O)O)cc3)NC(=O)[C@H](Cc3ccc(-c4ccccc4)cc3)NC(=O)[C@H](Cc3ccc(OCC(=O)O)cc3)NC2=O)c1 [Compound 2251] ({CH2CO}-[4Pal]Y(Carboxymethyl)D[Phe(3-Me)]Y(Carboxymethyl)[Bip]Y(Carboxymethyl)[Orn][dL][Dab][Cha][Val(3-OH)]SC[Dab][AEEA]-{NH(CH2)12COOH}; thioether N-14)
7 | 0.0135 | CCC[C@@H]1NC(=O)CSC[C@@H](C(=O)N[C@@H](CCN)C(=O)NCCOCCOCC(=O)NCCCCCCCCCCCCC(=O)O)NC(=O)[C@H](CO)NC(=O)C(C(C)(C)O)NC(=O)[C@H](CC2CCCCC2)NC(=O)[C@H](CCN)NC(=O)[C@@H](CC(C)C)NC(=O)[C@H](CCCN)NC(=O)[C@H](Cc2ccc(OCC(=O)O)cc2)NC(=O)[C@H](Cc2ccc(-c3ccccc3)cc2)NC(=O)[C@H](Cc2ccc(OCC(=O)O)cc2)NC(=O)[C@H](Cc2cccc(C)c2)NC(=O)[C@H](CC(=O)O)NC(=O)[C@H](Cc2ccc(OCC(=O)O)cc2)NC1=O (stereo partly drawn) [Compound 2252] ({CH2CO}-[Nva]Y(Carboxymethyl)D[Phe(3-Me)]Y(Carboxymethyl)[Bip]Y(Carboxymethyl)[Orn][dL][Dab][Cha][ξVal(3-OH)]SC[Dab][AEEA]-{NH(CH2)12COOH}; thioether N-14)
8 | 0.0091 | Cc1cccc(C[C@@H]2NC(=O)[C@H](CC(=O)O)NC(=O)[C@H](Cc3ccc(OCC(=O)O)cc3)NC(=O)[C@H](CCCNC(=N)N)NC(=O)CSC[C@@H](C(=O)N[C@@H](CCN)C(=O)NCCOCCOCC(=O)NCCCCCCCCCCCCC(=O)O)NC(=O)[C@H](CO)NC(=O)[C@H](C(C)(C)O)NC(=O)[C@H](CC3CCCCC3)NC(=O)[C@H](CCN)NC(=O)[C@@H](CC(C)C)NC(=O)[C@H](CCCN)NC(=O)[C@H](Cc3ccc(OCC(=O)O)cc3)NC(=O)[C@H](Cc3ccc(-c4ccccc4)cc3)NC(=O)[C@H](Cc3ccc(OCC(=O)O)cc3)NC2=O)c1 [Compound 2253] ({CH2CO}-RY(Carboxymethyl)D[Phe(3-Me)]Y(Carboxymethyl)[Bip]Y(Carboxymethyl)[Orn][dL][Dab][Cha][Val(3-OH)]SC[Dab][AEEA]-{NH(CH2)12COOH}; thioether N-14)
9 | 0.0101 | CCC[C@@H]1NC(=O)CSC[C@@H](C(=O)N[C@@H](CCN)C(=O)NCCOCCOCC(=O)NCCCCCCCCCCCCC(=O)O)NC(=O)[C@H](CO)NC(=O)[C@H](C(C)(C)O)NC(=O)[C@H](CC2CCCCC2)NC(=O)[C@H](CCN)NC(=O)[C@@H](CC(C)C)NC(=O)[C@H](CCCN)NC(=O)[C@H](Cc2ccc(OCC(=O)O)cc2)NC(=O)[C@H](Cc2ccc(-c3ccccc3)cc2)NC(=O)[C@H](Cc2ccc(OCC(=O)O)cc2)NC(=O)[C@H](Cc2cccc(C)c2)NC(=O)[C@H](CC(=O)O)NC(=O)[C@H](Cc2ccc(C(=O)O)cc2)NC1=O [Compound 2254] ({CH2CO}-[Nva][Phe(4-COOH)]D[Phe(3-Me)]Y(Carboxymethyl)[Bip]Y(Carboxymethyl)[Orn][dL][Dab][Cha][Val(3-OH)]SC[Dab][AEEA]-{NH(CH2)12COOH}; thioether N-14)
10 | 0.0136 | Cc1cccc(C[C@@H]2NC(=O)[C@H](CC(=O)O)NC(=O)[C@H](Cc3ccc(OCC(=O)O)cc3)NC(=O)[C@H](C3CNC3)NC(=O)CSC[C@@H](C(=O)N[C@@H](CCN)C(=O)NCCCCCCCCCCCCC(=O)O)NC(=O)[C@H](CO)NC(=O)[C@H](C(C)(C)O)NC(=O)[C@H](CC3CCCCC3)NC(=O)[C@H](CCN)NC(=O)[C@@H](CC(C)C)NC(=O)[C@H](CCCN)NC(=O)[C@H](Cc3ccc(OCC(=O)O)cc3)NC(=O)[C@H](Cc3ccc(-c4ccccc4)cc3)NC(=O)[C@H](Cc3ccc(OCC(=O)O)cc3)NC2=O)c1 [Compound 2256] ({CH2CO}-[X4]Y(Carboxymethyl)D[Phe(3-Me)]Y(Carboxymethyl)[Bip]Y(Carboxymethyl)[Orn][dL][Dab][Cha][Val(3-OH)]SC[Dab]-{NH(CH2)12COOH}; thioether N-14)
11 | 0.0111 | Cc1cccc(C[C@@H]2NC(=O)[C@H](CC(=O)O)NC(=O)[C@H](Cc3ccc(OCC(=O)O)cc3)NC(=O)C([C@H](C)N)NC(=O)CSC[C@@H](C(=O)N[C@@H](CCN)C(=O)NCCCCCCCCCCCCC(=O)O)NC(=O)[C@H](CO)NC(=O)[C@H](C(C)(C)O)NC(=O)[C@H](CC3CCCCC3)NC(=O)[C@H](CCN)NC(=O)[C@@H](CC(C)C)NC(=O)[C@H](CCCN)NC(=O)[C@H](Cc3ccc(OCC(=O)O)cc3)NC(=O)[C@H](Cc3ccc(-c4ccccc4)cc3)NC(=O)[C@H](Cc3ccc(OCC(=O)O)cc3)NC2=O)c1 (stereo partly drawn) [Compound 2257] ({CH2CO}-[X15]Y(Carboxymethyl)D[Phe(3-Me)]Y(Carboxymethyl)[Bip]Y(Carboxymethyl)[Orn][dL][Dab][Cha][Val(3-OH)]SC[Dab]-{NH(CH2)12COOH}; thioether N-14)
12 | 0.0489 | Cc1cccc(C[C@@H]2NC(=O)[C@H](CC(=O)O)NC(=O)[C@H](Cc3ccc(OCC(=O)O)cc3)NC(=O)C(CC3CCC(F)(F)CC3)NC(=O)CSC[C@@H](C(=O)N[C@@H](CCN)C(=O)NCCCCCCCCCCCCC(=O)O)NC(=O)[C@H](CO)NC(=O)[C@H](C(C)(C)O)NC(=O)[C@H](CC3CCCCC3)NC(=O)[C@H](CCN)NC(=O)[C@@H](CC(C)C)NC(=O)[C@H](CCCN)NC(=O)[C@H](Cc3ccc(OCC(=O)O)cc3)NC(=O)[C@H](Cc3ccc(-c4ccccc4)cc3)NC(=O)[C@H](Cc3ccc(OCC(=O)O)cc3)NC2=O)c1 (stereo partly drawn) [Compound 2258] ({CH2CO}-[X18]Y(Carboxymethyl)D[Phe(3-Me)]Y(Carboxymethyl)[Bip]Y(Carboxymethyl)[Orn][dL][Dab][Cha][Val(3-OH)]SC[Dab]-{NH(CH2)12COOH}; thioether N-14)
